The values that follow are results of earlier work, collected in patent US4144131A, “Immobilization of enzymes on human tissue or erythrocytes” (Wisconsin Alumni Research Foundation, priority 1974, dated 1979).

The subject of the data set is soybean lipoxygenase. To be noted: read-out: Km for oxygen, compared with oxygen concentrations in tumor tissue.

`O=O` [oxygen]: the Km was 30 µM.
